How the values were obtained:
Dipeptidyl Peptidase 9 = Dipeptidyl Peptidase 9 (Homo sapiens, UniProt Q86TI2); test: Recombinant dipeptidyl peptidases isolated enzyme assay, DPP9; type: biochemical; conditions: read-out: Dipeptidyl Peptidase 9 Enz (IC50: μM)
Description: Table 3 Inhibitory effects of marrubiin on dipeptidyl peptidase. | column: Dipeptidyl Peptidase 9 Enz (IC50: μM)

PR3 = test: Stability (protein level) of NSPs in U937 cells, Western blot, PR3; type: cell-based, human; conditions: U937, 10 μM
Description: The Western blot experiments in this study were performed as described below. Cells in the logarithmic growth phase were collected in appropriate numbers according to different experimental purposes. After being thoroughly washed with phosphate-buffered saline and centrifuged, the cell pellets were resuspended in phosphate-buffered saline to obtain single-cell suspensions. Cells were fully lysed using RIPA buffer (Beyotime, P0013B) supplemented with EDTA-free protease and phosphatase inhibitor (Abcam, ab201120). Total cellular protein solutions were obtained after centrifugation to remove cell debris. The isolated proteins were quantified using the BeyoBCA protein assay kit (Beyotime, P0399M) following the operational protocol. The quantified protein samples were thoroughly mixed with protein loading buffer, boiled on a dry bath for 5 min, and then cooled to room temperature for Western blot analysis. […] Finally, enhanced chemiluminescent horseradish peroxidase substrate (Tanon Science & Technology Co., Ltd., Shanghai, China, 180-506) was used to visualize protein bands on a ChemiDoc XRS system (Bio-Rad Laboratories, Inc., Hercules, CA, USA), and the protein bands were quantified using Image Lab analysis software (Version 6.1) (Bio-Rad). […]

[1] = test system: IL-1β, TNF-α, MCP-1, CXCL2 in serum; test: AIA model, serum cytokines by ELISA; type: in vivo, Sprague-Dawley rats; conditions: rat AIA, high-dose group (60 mg/kg)
Description: Thirty 4-week-old male Sprague-Dawley rats (weighing 120–130 g) were randomly divided into 6 groups (5 rats per group) after 1 week of adaptive feeding, namely the normal group, model group, low-dose experimental group (15 mg/kg), medium-dose experimental group (30 mg/kg), high-dose experimental group (60 mg/kg), and positive control group (30 mg/kg). Starting from Day 0 of the experiment, rats in the administration groups and model group were injected intradermally with 0.1 mL of CFA into the left hind paw to induce AIA, while rats in the normal group were injected intradermally with an equal volume (0.1 mL) of normal saline as a control. After 13 consecutive days of feeding, rats treated with CFA successfully developed typical AIA symptoms. […] During the experiment, the body weight, mental state, activity ability, hair color changes, and paw appearance changes of the rats were observed and recorded daily. In addition, on Day 0 of the experiment (baseline period), the basic paw volume of all rats was accurately measured using a plethysmometer, which served as a reference standard for subsequent evaluation of inflammation severity. From Day 13 to Day 28 of the experiment, the paw volume of the rats was measured repeatedly every 3 days. The degree of paw swelling was quantified by calculating the change in paw volume relative to the baseline. […] The cytokine levels in serum were measured. […]

Sequence of Dipeptidyl Peptidase 9 (Q86TI2 whole entry, species assumed): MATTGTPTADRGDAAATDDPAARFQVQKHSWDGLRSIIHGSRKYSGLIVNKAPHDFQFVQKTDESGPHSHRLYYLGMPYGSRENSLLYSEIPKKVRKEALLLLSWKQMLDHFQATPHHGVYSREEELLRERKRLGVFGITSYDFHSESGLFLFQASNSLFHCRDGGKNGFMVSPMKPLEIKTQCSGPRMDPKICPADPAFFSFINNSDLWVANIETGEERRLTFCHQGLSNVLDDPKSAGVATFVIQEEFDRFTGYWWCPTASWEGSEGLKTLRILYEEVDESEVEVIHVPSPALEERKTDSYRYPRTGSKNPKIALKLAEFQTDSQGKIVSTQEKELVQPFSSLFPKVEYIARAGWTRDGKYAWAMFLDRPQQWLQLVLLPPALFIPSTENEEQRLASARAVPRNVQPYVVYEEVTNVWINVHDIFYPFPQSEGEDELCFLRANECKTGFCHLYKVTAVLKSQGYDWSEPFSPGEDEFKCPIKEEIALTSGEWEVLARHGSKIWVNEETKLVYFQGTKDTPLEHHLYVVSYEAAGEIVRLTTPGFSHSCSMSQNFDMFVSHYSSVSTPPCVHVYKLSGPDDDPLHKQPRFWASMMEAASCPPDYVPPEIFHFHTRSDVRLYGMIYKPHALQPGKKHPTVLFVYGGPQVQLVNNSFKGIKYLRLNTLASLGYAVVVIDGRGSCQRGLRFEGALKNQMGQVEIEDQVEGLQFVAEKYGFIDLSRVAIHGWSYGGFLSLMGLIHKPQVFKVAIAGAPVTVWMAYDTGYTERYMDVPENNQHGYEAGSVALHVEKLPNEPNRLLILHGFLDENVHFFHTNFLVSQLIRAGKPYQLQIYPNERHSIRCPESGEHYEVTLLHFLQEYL

SMILES: C[C@@H]1C[C@H]2OC(=O)[C@@]3(C)CCC[C@@](C)([C@@H]23)[C@@]1(O)CCc1ccoc1 [Marrubiin, marrubiin]
- IC50 (Dipeptidyl Peptidase 9): > 10 µM
- PR3 protein level, % of original level (PR3; 96 h): 28.2%
- PR3 protein level, % of original level (PR3; 5 days): 15.8%
- serum levels of IL-1β, TNF-α, MCP-1, CXCL2 [1]: significantly lower than those in model group and control group
